≈ marks a conversion by molar mass, not a printed value.
Columns and labels:
[1] = tested on: M. hemolytica KB345 (Tilmicosin-sensitivity strain); assay: Paper disc assay, M. hemolytica KB345; format: cell-based, Mannhemia hemolytica
Protocol: (§1) (1) Antibacterial activities against Mannheimia and Pasteurella were determined by the following steps: • 1) M. hemolytica KB345 (Tilmicosin-sensitivity strain) and M. hemolytica KB346 (Tilmicosin-low sensitivity strain) were provided. KB 345 strain stored at −80° C. was seeded to BHIB agar medium (10 mL) by using Microbank beads (Pro-Lab) and platinum nail. After statically incubating the KB 345 strain for 24 hours at 37° C., it was seeded to maintaining slant BHIB agar medium (7 mL) by using platinum loop, further statically incubated for 24 hours at 37° C. to obtain slant. One platinum loop of KB 345 strain stored at the slant was inoculated into a large test tube charged with BHIB liquid medium (10 mL) and then incubated for 24 hours at 37° C. with shaking. • 2) A paper disc (ADVANTEC, Φ:6 mm) was impregnated with a solution of test compound and dried under reduced pressure. • 3) To a melted BHIB agar medium was inoculated 1% of the broth obtained from step 1) above to prepare a test plate. After the medium set, the paper disc prepared in step 2) above was put on the plate and it was incubated at 37° C. • 4) After one day, the inhibition zone diameter and clarity (A to E) were determined. For KB346 strain, the same procedures were repeated.

[2] = tested on: M. hemolytica KB346 (Tilmicosin-low sensitivity strain); assay: Paper disc assay, M. hemolytica KB346; format: cell-based, Mannhemia hemolytica
Protocol: as §1

[3] = tested on: Bacillus subtilis ATCC6633; assay: Paper disc assay, Bacillus subtilis; format: cell-based; settings: S
Protocol: (§2) (2) Antibacterial activities against other bacteria were determined with Micrococcus luteus ATCC9341 (1), Bacillus subtilis […] (s), Escherichia coli NIHJ (c), Xanthomonas campestris KB88 (X), Mucor racemosus IFO 4581 (Mu) and Candida albicans ATCC 64548 (Ca).
(§3) Bacillus subtilis ATCC6633 was incubated in Davis synthetic medium and then the seed broth was combined with the medium in the ratio of 1:99 to obtain a test plate. Micrococcus luteus ATCC9341, Escherichia coli NIHJ and Xanthomonas campestris KB88 were respectively incubated in Nutrient agar medium and inoculated at 0.2%, 0.5% and 1.0%. Mucor racemosus IFO 4581 and Candida albicans ATCC 64548 were respectively incubated in GY agar medium and then inoculated at 0.3% and 0.2%.
(§4) A paper disc (ADVANTEC, Φ:6 mm) was impregnated with a solution of test compound and dried under reduced pressure. The paper disc was put on the test plate and it was incubated for 24 hours at 37° C. After incubation, the inhibition zone diameter and clarity (A to E) were determined.

[4] = tested on: Micrococcus luteus ATCC9341; assay: Paper disc assay, Micrococcus luteus; format: cell-based; settings: column 1
Protocol: as §2, §3, §4

[5] = tested on: Xanthomonas campestris KB88; assay: Paper disc assay, Xanthomonas campestris; format: cell-based; settings: X
Protocol: as §2, §3, §4

[6] = tested on: Mannheimia haemolytica, 3 isolates; assay: MIC against Mannheimia haemolytica isolates; format: cell-based
Protocol: (§5) Minimal inhibitory concentrations (MICs) were determined against the most prevalent pathogens in cattle (Mannheimia Haemolytica, 3 isolates) and swine (A. pleuropneumoniae, 6 isolates). In addition the activity of several compounds was tested against two bacterial species, i.e. Mannheimia haemolytica and Actinobacillus pleuropneumoniae, which are considered as the most important bacterial respiratory pathogens in cattle and swine, respectively.

[7] = tested on: Actinobacillus pleuropneumoniae, 6 isolates; assay: MIC against Actinobacillus pleuropneumoniae isolates; format: cell-based
Protocol: as §5

Arcanobacterium pyogenes = assay: MIC50 mastitis pathogens, broth dilution; format: cell-based; settings: Trueperella pyogenes, A. pyogenes, 7 to 12 isolates, 24 hours
Text: (§6) The activity of several compounds against bacterial mastitis pathogens has been tested under in-vitro conditions according to a recognized procedure (CLSI, document […]-A3, 2008). In this test 7 to 12 representative bacteria belonging to 7 bacterial species that typically cause mastitis in dairy cattle, i.e. Staphylococcus aureus, coagulase negative staphylococci (CNS), Streptococcus uberis, Streptococus dysgalactiae, Streptococcus agalactiae, Arcanobacterium pyogenes and Escherichia coli, were exposed to two-fold dilutions of the test compounds. After 24 hours of incubation the concentration that inhibited the growth of this bacteria was determined. It could be shown that all these bacterial mastitis pathogens were highly susceptible to the test compounds.

Escherichia coli = assay: MIC50 mastitis pathogens, broth dilution; format: cell-based; settings: E. coli, 7 to 12 isolates, 24 hours
Text: as §6

Staphylococcus aureus = assay: MIC50 mastitis pathogens, broth dilution; format: cell-based; settings: S. aureus, 7 to 12 isolates, 24 hours
Text: as §6

Streptococcus agalactiae = assay: MIC50 mastitis pathogens, broth dilution; format: cell-based; settings: Str agalactiae, 7 to 12 isolates, 24 hours
Text: as §6

Streptococcus uberis = assay: MIC50 mastitis pathogens, broth dilution; format: cell-based; settings: Str uberis, 7 to 12 isolates, 24 hours
Text: as §6

[8] = tested on: Streptococus dysgalactiae; assay: MIC50 mastitis pathogens, broth dilution; format: cell-based; settings: Str dysgalactiae, 7 to 12 isolates, 24 hours
Text: as §6

[9] = tested on: coagulase negative staphylococci (CNS); assay: MIC50 mastitis pathogens, broth dilution; format: cell-based; settings: 7 to 12 isolates, 24 hours
Text: as §6

CC[C@H]1OC(=O)C[C@@H](O)[C@H](C)[C@@H](O[C@@H]2O[C@H](C)[C@@H](O)[C@H](N(C)C)[C@H]2O)[C@@H](CC=O)C[C@@H](C)C(=O)/C=C/C(C)=C/[C@@H]1CO[C@@H]1O[C@H](C)[C@@H](O)[C@@H](OC)[C@H]1OC [YT6, Desmycosin]
Inhibition zone ([1]; 30 mg/6 mm disk, Table 2): 10.5 mm | Inhibition zone ([2]; 3 mg/6 mm disk, Table 3): 8.5 mm | Inhibition zone ([2]; 10 mg/6 mm disk, Table 3): 13.5 mm | Inhibition zone ([2]; 30 mg/6 mm disk, Table 3): 17.5 mm | Inhibition zone ([2]; 100 mg/6 mm disk, Table 3): 21.0 mm

CCC1OC(=O)CC(O)C(C)C(OC2OC(C)C(O)C(N(C)C)C2O)C(CCCl)CC(C)C(=O)C=CC(C)=CC1COC1OC(C)C(O)C(OC)C1OC (stereo not drawn) [YT8, 20-chloro-20-deoxodesmycosin]
Inhibition zone ([1]; 10 mg/6 mm disk, Table 2): 12.5 mm | Inhibition zone ([1]; 30 mg/6 mm disk, Table 2): 18.0 mm | Inhibition zone ([1]; 100 mg/6 mm disk, Table 2): 20.0 mm | Inhibition zone ([2]; 30 mg/6 mm disk, Table 3): 11.0 mm | Inhibition zone ([2]; 100 mg/6 mm disk, Table 3): 14.5 mm

CCC1OC(=O)CC(O)C(C)C(OC2OC(C)C(O)C(N(C)C)C2O)C(CCN=[N+]=[N-])CC(C)C(=O)C=CC(C)=CC1COC1OC(C)C(O)C(OC)C1OC (stereo not drawn) [YT11, 20-azido-20-deoxodesmycosin]
Inhibition zone ([1]; 3 mg/6 mm disk, Table 2): 10.0 mm | Inhibition zone ([1]; 10 mg/6 mm disk, Table 2): 13.0 mm | Inhibition zone ([1]; 30 mg/6 mm disk, Table 2): 16.0 mm | Inhibition zone ([1]; 100 mg/6 mm disk, Table 2): 18.0 mm | Inhibition zone ([2]; 100 mg/6 mm disk, Table 3): 11.0 mm

CC[C@H]1OC(=O)C[C@@H](O)[C@H](C)[C@@H](O[C@@H]2OC(C)[C@@H](O)C(N(C)C)C2O)[C@@H](CCn2cc(CCCCCl)nn2)C[C@@H](C)C(=O)/C=C/C(C)=C/[C@@H]1CO[C@@H]1OC(C)[C@@H](O)C(OC)C1OC (stereo partly drawn) [YT19, 20-(4-(4-chlorobutyl)-1H-1,2,3-triazol-1-yl)-20-deoxodesmycosin]
Inhibition zone ([3]; 0.1 mg/6 mm disc): 7 mm | Inhibition zone ([3]; 1 mg/6 mm disc): 10.5 mm | Inhibition zone ([3]; 10 mg/6 mm disc): 15 mm | Inhibition zone ([4]; 0.1 mg/6 mm disc): 13 mm | Inhibition zone ([4]; 1 mg/6 mm disc): 19 mm | Inhibition zone ([4]; 10 mg/6 mm disc): 26 mm | Inhibition zone ([5]; 0.1 mg/6 mm disc): 7 mm | Inhibition zone ([5]; 1 mg/6 mm disc): 14.5 mm | Inhibition zone ([5]; 10 mg/6 mm disc): 23 mm

CC[C@H]1OC(=O)C[C@@H](O)[C@H](C)[C@@H](O[C@@H]2OC(C)[C@@H](O)C(N(C)C)C2O)[C@@H](CCn2cc(-c3ccc(N(C)C)cc3)nn2)C[C@@H](C)C(=O)/C=C/C(C)=C/[C@@H]1CO[C@@H]1OC(C)[C@@H](O)C(OC)C1OC (stereo partly drawn) [YT29, 20-(4-(4-dimethylaminophenyl)-1H-1,2,3-triazol-1-yl)-20-deoxodesmycosin]
Inhibition zone ([3]; 0.1 mg/6 mm disc): 7 mm | Inhibition zone ([3]; 1 mg/6 mm disc): 10 mm | Inhibition zone ([3]; 10 mg/6 mm disc): 15 mm | Inhibition zone ([4]; 0.1 mg/6 mm disc): 11 mm | Inhibition zone ([4]; 1 mg/6 mm disc): 19.5 mm | Inhibition zone ([4]; 10 mg/6 mm disc): 25.5 mm | Inhibition zone ([5]; 0.1 mg/6 mm disc): 7 mm | Inhibition zone ([5]; 1 mg/6 mm disc): 15 mm | Inhibition zone ([5]; 10 mg/6 mm disc): 24 mm

CC[C@H]1OC(=O)C[C@@H](O)[C@H](C)[C@@H](O[C@@H]2O[C@H](C)[C@@H](O)[C@H](N(C)C)[C@H]2O)[C@@H](CC=O)C[C@@H](C)C(=O)/C=C/C(C)=C/[C@@H]1CO [YT106, 5-O-mycaminosyltylonolide]
Inhibition zone ([1]; 10 mg/6 mm disk, Table 4): 8.5 mm | Inhibition zone ([1]; 30 mg/6 mm disk, Table 4): 12.5 mm | Inhibition zone ([1]; 100 mg/6 mm disk, Table 4): 15.0 mm | Inhibition zone ([2]; 10 mg/6 mm disk, Table 5): 9.0 mm | Inhibition zone ([2]; 30 mg/6 mm disk, Table 5): 13.0 mm | Inhibition zone ([2]; 100 mg/6 mm disk, Table 5): 17.0 mm

CCC1OC(=O)CC(O)C(C)C(OC2OC(C)C(O)C(N(C)C)C2O)C(CC=O)CC(C)C(=O)C=CC(C)=CC1CN=[N+]=[N-] (stereo not drawn) [YT107, 23-azido-23-deoxo-5-O-mycaminosyltylonolide]
Inhibition zone ([1]; 3 mg/6 mm disk, Table 4): 12.0 mm | Inhibition zone ([1]; 10 mg/6 mm disk, Table 4): 16.0 mm | Inhibition zone ([1]; 30 mg/6 mm disk, Table 4): 18.0 mm | Inhibition zone ([1]; 100 mg/6 mm disk, Table 4): 21.5 mm | Inhibition zone ([2]; 30 mg/6 mm disk, Table 5): 10.5 mm | Inhibition zone ([2]; 100 mg/6 mm disk, Table 5): 15.0 mm

CCC1OC(=O)CC(O)C(C)C(OC2OC(C)C(O)C(N(C)C)C2O)C(CC=O)CC(C)C(=O)C=CC(C)=CC1CI (stereo not drawn) [YT111]
Inhibition zone ([1]; 3 mg/6 mm disk, Table 4): 11.5 mm | Inhibition zone ([1]; 10 mg/6 mm disk, Table 4): 15.5 mm | Inhibition zone ([1]; 30 mg/6 mm disk, Table 4): 20.0 mm | Inhibition zone ([1]; 100 mg/6 mm disk, Table 4): 25.0 mm | Inhibition zone ([2]; 30 mg/6 mm disk, Table 5): 8.5 mm | Inhibition zone ([2]; 100 mg/6 mm disk, Table 5): 13.0 mm

CCC1OC(=O)CC(O)C(C)C(OC2OC(C)C(O)C(N(C)C)C2O)C(CCn2cc(-c3ccccc3)nn2)CC(C)C(=O)C=CC(C)=CC1CO (stereo not drawn) [YT112, 20-(4-phenyl-1H-1,2,3-triazol-1-yl)-20-deoxo-5-O-mycaminosyltylonolide]
Inhibition zone ([1]; 3 mg/6 mm disk, Table 4): 17.0 mm | Inhibition zone ([1]; 10 mg/6 mm disk, Table 4): 20.0 mm | Inhibition zone ([1]; 30 mg/6 mm disk, Table 4): 25.0 mm | Inhibition zone ([1]; 100 mg/6 mm disk, Table 4): 29.0 mm | Inhibition zone ([2]; 100 mg/6 mm disk, Table 5): 11.5 mm | MICs ([6]; M. haemolytica isolate 1): 8 µg/mL | MICs ([6]; M. haemolytica isolate 2): 4 µg/mL | MICs ([6]; M. haemolytica isolate 3): 8 µg/mL | MICs ([7]; pleuropneumoniae isolate 1): 4 µg/mL | MICs ([7]; pleuropneumoniae isolate 2): 4 µg/mL | MICs ([7]; pleuropneumoniae isolate 3): 4 µg/mL | MICs ([7]; pleuropneumoniae isolate 4): 8 µg/mL | MICs ([7]; pleuropneumoniae isolate 5): 4 µg/mL | MICs ([7]; pleuropneumoniae isolate 6): 8 µg/mL

CC[C@H]1OC(=O)C[C@@H](O)[C@H](C)[C@@H](O[C@@H]2OC(C)[C@@H](O)C(N(C)C)C2O)[C@@H](CCN(C)Cc2cn(-c3cnc4ccccc4c3)nn2)C[C@@H](C)C(=O)/C=C/C(C)=C/[C@@H]1CO (stereo partly drawn) [YT650]
MIC50 (Arcanobacterium pyogenes): 0.004 µg/mL (≈ 0.00487 µM) | MIC50 (Escherichia coli): 8 µg/mL (≈ 9.74 µM) | MIC50 (Staphylococcus aureus): 0.25 µg/mL (≈ 0.304 µM) | MIC50 (Streptococcus agalactiae): 0.008 µg/mL (≈ 0.00974 µM) | MIC50 (Streptococcus uberis): 0.03 µg/mL (≈ 0.0365 µM) | MIC50 [8]: 0.03 µg/mL (≈ 0.0365 µM) | MIC50 [9]: 0.25 µg/mL (≈ 0.304 µM)
